Consider three compounds from patent publication US6083977A, “Trienoic retinoid compounds and methods” (Ligand Pharmaceuticals Incorporated, priority 1995, dated 2000).

Structures are written as SMILES.

In one test the test system is AML-193. Briefly: Incorporation of 3H-thymidine, AML-193. Conditions: 96 h, read-out: TdR IC50 (50% inhibition of maximally observed thymidine incorporation).
In a further test the test system is RARs. Briefly: Co-transfection assay, RAR subfamily. In kind it is cell-based, human. As to the method: (§1) Utilizing the "cis-trans" or "co-transfection" assay described by Evans et al., Science, 240:889-95 (May 13, 1988), the disclosure of which is herein incorporated by reference, the retinoid compounds of the present invention were tested and found to have strong, specific activity as either selective RAR agonists, selective RXR agonists, or as pan-agonist activators of both RAR and RXR receptors. This assay is described in further detail in U.S. Pat. Nos. 4,981,784 and 5,071,773, the disclosures of which are incorporated herein by reference.
The co-transfection assay provides a method for identifying functional agonists which mimic, or antagonists which inhibit, the effect of native hormones, and quantifying their activity for responsive IR proteins. In this regard, the co-transfection assay mimics an in vivo system in the laboratory. Importantly, activity in the co-transfection assay correlates very well with known in vivo activity, such that the co-transfection assay functions as a qualitative and quantitative predictor of a tested compounds in vivo pharmacology. See, e.g., T. Berger et al. 41 J. Steroid Biochem. Molec. Biol. 773 (1992), the disclosure of which is herein incorporated by reference.
In the co-transfection assay, a cloned cDNA for an IR (e.g., human RARα, RARβ, RXRγ) under the control of a constitutive promoter (e.g., the SV 40 promoter) is introduced by transfection (a procedure to induce cells to take up foreign genes) into a background cell substantially devoid of endogenous IRs. This introduced gene directs the recipient cells to make the IR protein of interest. A second gene is also introduced (co-transfected) into the same cells in conjunction with the IR gene. This second gene, comprising the cDNA for a reporter protein, such as firefly luciferase (LUC), is controlled by an appropriate hormone responsive promoter containing a hormone response element (HRE). This reporter plasmid functions as a reporter for the transcription-modulating activity of the target IR. Thus, the reporter acts as a surrogate for the products (mRNA then protein) normally expressed by a gene under control of the target receptor and its native hormone.
The co-transfection assay can detect small molecule agonists or antagonists of target IRs. Exposing the transfected cells to an agonist ligand compound increases reporter activity in the transfected cells. This activity can be conveniently measured, e.g., by increasing luciferase production, which reflects compound-dependent, IR-mediated increases in reporter transcription. […] . Increasing concentrations of a suspected antagonist will decrease the reporter signal (e.g., luciferase production). The co-transfection assay is therefore useful to detect both agonists and antagonists of specific IRs. Furthermore, it determines not only whether a compound interacts with a particular IR, but whether this interaction mimics (agonizes) or blocks (antagonizes) the effects of the native regulatory molecules on target gene expression, as well as the specificity and strength of this interaction. […]

The next test addresses T1, RARγ (Homo sapiens, UniProt P13631).
T1 construct: expressed in transfected cells; host or cells: CV-1 (African green monkey kidney fibroblasts)
T1 sequence (P13631 1-454): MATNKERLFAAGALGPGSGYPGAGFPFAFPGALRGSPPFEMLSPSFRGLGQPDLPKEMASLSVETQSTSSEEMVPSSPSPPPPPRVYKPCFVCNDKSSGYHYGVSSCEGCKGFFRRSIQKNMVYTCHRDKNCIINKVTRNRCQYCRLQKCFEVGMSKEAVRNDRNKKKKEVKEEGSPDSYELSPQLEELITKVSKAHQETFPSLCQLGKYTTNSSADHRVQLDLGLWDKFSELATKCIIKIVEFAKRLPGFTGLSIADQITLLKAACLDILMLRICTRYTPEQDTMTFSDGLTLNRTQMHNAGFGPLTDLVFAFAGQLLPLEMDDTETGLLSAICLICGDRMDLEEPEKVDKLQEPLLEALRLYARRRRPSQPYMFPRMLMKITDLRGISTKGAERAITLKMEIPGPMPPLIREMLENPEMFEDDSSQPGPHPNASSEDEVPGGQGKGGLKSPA
As to the kind of experiment: Co-transfection assay (CV-1 cells), RARγ agonist activity. In kind it is cell-based.

The test system of the next test is RAR and RXR receptors. As to the kind of experiment: Binding to the RAR and RXR receptors. Conditions: relative to ATRA (RAR) and 9-cis (RXR).
A further test relates to RXR. Briefly: Co-transfection assay, RXR subfamily. In kind it is cell-based. As to the method: as §1
The co-transfection assay provides a method for identifying functional agonists which mimic, or antagonists which inhibit, the effect of native hormones, and quantifying their activity for responsive IR proteins. In this regard, the co-transfection assay mimics an in vivo system in the laboratory. Importantly, activity in the co-transfection assay correlates very well with known in vivo activity, such that the co-transfection assay functions as a qualitative and quantitative predictor of a tested compounds in vivo pharmacology. See, e.g., T. Berger et al. 41 J. Steroid Biochem. Molec. […]
The co-transfection assay can detect small molecule agonists or antagonists of target IRs. […] This activity can be conveniently measured, e.g., by increasing luciferase production, which reflects compound-dependent, IR-mediated increases in reporter transcription. […]

A further test addresses T2, RXRα (Homo sapiens, UniProt P19793).
T2 construct: expressed in transfected cells; host or cells: CV-1 (African green monkey kidney fibroblasts)
T2 sequence (P19793 1-462): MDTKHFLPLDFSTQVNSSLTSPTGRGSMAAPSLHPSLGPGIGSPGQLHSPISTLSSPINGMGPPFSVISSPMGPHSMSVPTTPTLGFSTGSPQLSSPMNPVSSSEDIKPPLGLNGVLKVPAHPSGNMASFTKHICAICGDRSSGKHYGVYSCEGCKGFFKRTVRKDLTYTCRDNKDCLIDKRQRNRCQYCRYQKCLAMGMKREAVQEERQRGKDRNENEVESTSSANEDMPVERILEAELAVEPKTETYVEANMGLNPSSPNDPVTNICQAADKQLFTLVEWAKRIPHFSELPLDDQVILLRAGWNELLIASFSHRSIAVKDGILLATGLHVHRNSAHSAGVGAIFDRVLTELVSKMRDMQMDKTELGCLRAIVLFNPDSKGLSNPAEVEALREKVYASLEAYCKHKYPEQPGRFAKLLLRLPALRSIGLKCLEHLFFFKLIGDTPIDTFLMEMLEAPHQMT
Briefly: Co-transfection assay (CV-1 cells), RXRα agonist activity. In kind it is cell-based. As to conditions: read-out: RXRα Pot (potency, EC50).

Another test deals with T3, RXRγ (Mus musculus, UniProt P28705).
T3 construct: expressed in transfected cells; host or cells: CV-1 (African green monkey kidney fibroblasts)
T3 sequence (P28705 1-463): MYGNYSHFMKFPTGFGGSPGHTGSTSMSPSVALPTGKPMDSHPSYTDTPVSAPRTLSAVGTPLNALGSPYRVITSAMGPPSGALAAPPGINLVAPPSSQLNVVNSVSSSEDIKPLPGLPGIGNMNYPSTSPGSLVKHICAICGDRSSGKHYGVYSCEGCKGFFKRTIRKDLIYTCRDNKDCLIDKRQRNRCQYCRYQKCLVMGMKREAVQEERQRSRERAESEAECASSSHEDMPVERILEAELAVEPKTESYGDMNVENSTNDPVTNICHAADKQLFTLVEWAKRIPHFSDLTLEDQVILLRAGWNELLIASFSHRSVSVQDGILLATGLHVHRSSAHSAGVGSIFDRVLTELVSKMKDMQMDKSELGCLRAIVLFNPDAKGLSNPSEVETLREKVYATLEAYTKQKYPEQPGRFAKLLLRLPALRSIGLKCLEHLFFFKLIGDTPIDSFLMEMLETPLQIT
As to the kind of experiment: Co-transfection assay (CV-1 cells), RXRγ agonist activity. In kind it is cell-based. Conditions: read-out: RXRγ Pot (potency, EC50).

The next test deals with T4, RARβ (Homo sapiens, UniProt P10826).
T4 construct: expressed in transfected cells; host or cells: CV-1 (African green monkey kidney fibroblasts)
T4 sequence (P10826 1-448 isoform P10826-2): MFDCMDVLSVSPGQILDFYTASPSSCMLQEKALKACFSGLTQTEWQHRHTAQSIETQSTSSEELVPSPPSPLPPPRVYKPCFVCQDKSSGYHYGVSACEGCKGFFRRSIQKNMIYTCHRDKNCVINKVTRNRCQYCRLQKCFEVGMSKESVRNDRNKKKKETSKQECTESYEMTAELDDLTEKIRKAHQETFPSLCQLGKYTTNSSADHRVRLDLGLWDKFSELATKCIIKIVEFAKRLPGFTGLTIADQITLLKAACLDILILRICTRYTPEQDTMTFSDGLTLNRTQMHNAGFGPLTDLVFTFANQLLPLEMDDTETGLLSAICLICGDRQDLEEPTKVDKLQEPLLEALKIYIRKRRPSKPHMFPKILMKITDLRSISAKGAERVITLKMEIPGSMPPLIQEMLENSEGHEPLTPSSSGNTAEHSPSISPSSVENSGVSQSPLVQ
As to the kind of experiment: Co-transfection assay (CV-1 cells), RARβ agonist activity. In kind it is cell-based. Conditions: read-out: RARβ Pot (potency, EC50).

The next test has as its target T5, RXRβ (Mus musculus, UniProt P28704).
T5 construct: expressed in transfected cells; host or cells: CV-1 (African green monkey kidney fibroblasts)
T5 sequence (P28704 1-520): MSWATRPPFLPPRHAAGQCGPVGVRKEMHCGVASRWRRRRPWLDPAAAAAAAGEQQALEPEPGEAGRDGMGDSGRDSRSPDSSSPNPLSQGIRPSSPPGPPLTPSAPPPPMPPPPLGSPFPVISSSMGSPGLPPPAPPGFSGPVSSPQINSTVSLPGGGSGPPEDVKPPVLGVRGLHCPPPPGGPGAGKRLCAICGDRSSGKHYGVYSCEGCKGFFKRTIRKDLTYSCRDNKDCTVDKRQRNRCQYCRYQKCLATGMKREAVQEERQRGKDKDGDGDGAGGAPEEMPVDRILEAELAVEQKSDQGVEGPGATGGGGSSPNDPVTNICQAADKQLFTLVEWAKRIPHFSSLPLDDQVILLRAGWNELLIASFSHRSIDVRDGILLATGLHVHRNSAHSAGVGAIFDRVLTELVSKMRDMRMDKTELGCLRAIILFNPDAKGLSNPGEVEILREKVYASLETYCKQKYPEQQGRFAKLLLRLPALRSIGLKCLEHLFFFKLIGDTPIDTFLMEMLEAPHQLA
As to the kind of experiment: Co-transfection assay (CV-1 cells), RXRβ agonist activity. Conditions: read-out: RXRβ Pot (potency, EC50). In kind it is cell-based.

For the next test, the target named is T6, RARα (Homo sapiens, UniProt P10276).
T6 construct: expressed in transfected cells; host or cells: CV-1 (African green monkey kidney fibroblasts)
T6 sequence (P10276 1-462): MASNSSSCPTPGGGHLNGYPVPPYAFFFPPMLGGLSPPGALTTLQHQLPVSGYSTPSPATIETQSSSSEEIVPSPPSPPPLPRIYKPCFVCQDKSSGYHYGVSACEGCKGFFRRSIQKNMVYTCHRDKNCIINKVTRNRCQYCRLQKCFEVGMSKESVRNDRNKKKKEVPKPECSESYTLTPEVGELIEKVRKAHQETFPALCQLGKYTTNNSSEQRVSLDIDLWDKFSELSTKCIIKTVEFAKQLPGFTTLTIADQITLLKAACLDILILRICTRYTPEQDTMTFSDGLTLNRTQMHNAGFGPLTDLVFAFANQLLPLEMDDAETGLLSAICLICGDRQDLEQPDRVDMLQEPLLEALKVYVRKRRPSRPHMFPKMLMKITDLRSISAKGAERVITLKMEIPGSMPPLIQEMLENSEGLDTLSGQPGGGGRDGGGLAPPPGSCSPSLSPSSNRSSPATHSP
Briefly: Co-transfection assay (CV-1 cells), RARα agonist activity. In kind it is cell-based. As to conditions: read-out: RARα Pot (potency, EC50).

Take `CC(/C=C/C=C(\C)c1cc(C(C)(C)C)cc(C(C)(C)C)c1)=C\C(=O)O` [Compound 9, (2E, 4E, 6E)-7-(3,5-Di-t-butylphenyl)-3-methylocta-2,4,6-trienoic acid]: the IC50 in the test on AML-193 was 0.0001 µM. Besides, in the test with RARs, the “RAR activity (in words)” value was “extremely potent RAR active compounds”. The “activity on RARγ (in words)” value on RARγ is recorded as “sub-nanomolar activity”. Moreover, the “binding compared to ATRA and 9-cis (in words)” value in the test on RAR and RXR receptors was “equal or superior binding”.

In the case of `CCC/C(=C/C=C/C(C)=C/C(=O)O)c1cc(C(C)(C)C)cc(C(C)(C)C)c1` [Compound 28, (2E. 4E 6Z)-7-(3,5-Di-t-butylphenyl)-3-methyldeca-2,4,6-trienoic acid], the “RXR activity (in words)” value with RXR was “very potent and selective RXR active compound”.

As to `CCCC(O)c1cc(C(C)(C)C)cc(C(C)(C)C)c1` (centres unmarked) [Compound 19, 1-(3,5-Di-t-butylphenyl)butan-1-ol], the EC50 is 0.127 µM at RXRα; 0.016 µM at RARγ (co-transfection assay, CV-1 cells, read-out: RARγ Pot (potency, EC50)); 0.056 µM on RXRγ; 0.023 µM at RARβ; 0.048 µM on RXRβ; 0.059 µM on RARα.
